Data as given in PubChem BioAssay (NCI).
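GI50 marks 50% less growth. Definition used: TGI = concentration required for complete inhibition of growth.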

Columns and labels:
Assay in all cases: NCI-60 cell line screen, 384-well format
NCI-H226 lung = test system: NCI-H226 lung
NCI-H23 lung = test system: NCI-H23 lung
NCI-H322M lung = test system: NCI-H322M lung
NCI-H460 NSCLC = test system: NCI-H460 NSCLC
NCI-H522 lung = test system: NCI-H522 lung
NCI/ADR-RES ovarian = test system: NCI/ADR-RES ovarian
OVCAR-3 ovarian = test system: OVCAR-3 ovarian
OVCAR-4 ovarian = test system: OVCAR-4 ovarian
OVCAR-8 ovarian = test system: OVCAR-8 ovarian
PC-3 prostate = test system: PC-3 prostate
RPMI-8226 leukemia = test system: RPMI-8226 leukemia
RXF 393 renal = test system: RXF 393 renal
SF-268 CNS = test system: SF-268 CNS
SF-295 CNS = test system: SF-295 CNS
SF-539 CNS = test system: SF-539 CNS
SK-MEL-28 melanoma = test system: SK-MEL-28 melanoma
SK-MEL-5 melanoma = test system: SK-MEL-5 melanoma
SK-OV-3 ovarian = test system: SK-OV-3 ovarian
SN12C renal = test system: SN12C renal
SNB-19 CNS = test system: SNB-19 CNS
SNB-75 CNS = test system: SNB-75 CNS
SR leukemia = test system: SR leukemia
SW-620 colon = test system: SW-620 colon
T-47D breast = test system: T-47D breast
TK-10 renal = test system: TK-10 renal
U251 glioblastoma = test system: U251 glioblastoma
UACC-257 melanoma = test system: UACC-257 melanoma
UACC-62 melanoma = test system: UACC-62 melanoma
UO-31 renal = test system: UO-31 renal

COc1cc2ncnc(Nc3cccc(Cl)c3F)c2cc1OC(=O)N1CCN(C)C[C@H]1C
GI50 (NCI-H226 lung): 11.7 µM
TGI (NCI-H226 lung): 33.8 µM
GI50 (NCI-H23 lung): 16.4 µM
TGI (NCI-H23 lung): 41.7 µM
GI50 (NCI-H322M lung): 0.144 µM
TGI (NCI-H322M lung): 10.8 µM
GI50 (NCI-H460 NSCLC): 19.9 µM
TGI (NCI-H460 NSCLC): 44.2 µM
GI50 (NCI-H522 lung): 0.851 µM
TGI (NCI-H522 lung): 17.5 µM
GI50 (NCI/ADR-RES ovarian): 18 µM
TGI (NCI/ADR-RES ovarian): 64.2 µM
GI50 (OVCAR-3 ovarian): 4.35 µM
TGI (OVCAR-3 ovarian): 24.3 µM
GI50 (OVCAR-4 ovarian): 18.5 µM
TGI (OVCAR-4 ovarian): 51.5 µM
GI50 (OVCAR-8 ovarian): 15.3 µM
TGI (OVCAR-8 ovarian): 49.2 µM
GI50 (PC-3 prostate): 15.6 µM
TGI (PC-3 prostate): 49.8 µM
GI50 (RPMI-8226 leukemia): 14.6 µM
TGI (RPMI-8226 leukemia): 30.9 µM
GI50 (RXF 393 renal): 14.1 µM
TGI (RXF 393 renal): 29.2 µM
GI50 (SF-268 CNS): 18.8 µM
TGI (SF-268 CNS): 54 µM
GI50 (SF-295 CNS): 16.3 µM
TGI (SF-295 CNS): 31.4 µM
GI50 (SF-539 CNS): 16.7 µM
TGI (SF-539 CNS): 32.5 µM
GI50 (SK-MEL-28 melanoma): 14.6 µM
TGI (SK-MEL-28 melanoma): 28 µM
GI50 (SK-MEL-5 melanoma): 11.5 µM
TGI (SK-MEL-5 melanoma): 24.9 µM
GI50 (SK-OV-3 ovarian): 3.46 µM
TGI (SK-OV-3 ovarian): 22.7 µM
GI50 (SN12C renal): 2.69 µM
TGI (SN12C renal): 27.6 µM
GI50 (SNB-19 CNS): 27.7 µM
TGI (SNB-19 CNS): > 100 µM
GI50 (SNB-75 CNS): 17.6 µM
TGI (SNB-75 CNS): 47.1 µM
GI50 (SR leukemia): 10.8 µM
TGI (SR leukemia): 23.6 µM
GI50 (SW-620 colon): 20.3 µM
TGI (SW-620 colon): 38.2 µM
GI50 (T-47D breast): 9.89 µM
TGI (T-47D breast): 40.9 µM
GI50 (TK-10 renal): 0.573 µM
TGI (TK-10 renal): 21.3 µM
GI50 (U251 glioblastoma): 20.2 µM
TGI (U251 glioblastoma): 48 µM
GI50 (UACC-257 melanoma): 17.5 µM
TGI (UACC-257 melanoma): 31.5 µM
GI50 (UACC-62 melanoma): 14.2 µM
TGI (UACC-62 melanoma): 28.1 µM
GI50 (UO-31 renal): 6.94 µM
TGI (UO-31 renal): 27.9 µM
